Experimental data taken from publication PMC11189516, “Structure-guided conversion from an anaplastic lymphoma kinase inhibitor into Plasmodium lysyl-tRNA synthetase selective inhibitors” (Communications Biology, 2024).
Like-named read-outs stand apart in the source and are kept apart here.

Columns and labels:
HepG2 cells = assay: Cytotoxicity assay (CCK-8); assay type: cell-based, human; settings: HepG2, 72 h
Experimental: (§1) HepG2 cells (National Collection of Authenticated Cell Cultures) were cultured in Minimum Essential Medium (Gibco) supplemented with 10% of fetal bovine serum, 100 U·mL^−1 penicillin, 100 U·mL^−1 streptomycin (Gibco), 2 mM L-Glutamine (Gibco), 1× NEAA (Gibco) and 1 mM Sodium Pyruvate (Gibco). The cells were hemi-depleted each week with fresh medium and maintained at 1 ~ 2 × 10^6 cells/mL in 6-cm dishes at 37 °C and 5% CO2. Tested with MycoBlue Mycoplasma Detector D101 (Vazyme), the cells were free from mycoplasma contamination.
(§2) Cell viability was analyzed by Cell Counting Kit-8 (CCK8, ApexBio) according to the manufacturer’s protocols. Cells were seeded and cultured at a density of 2.5 × 10^3 cells per well in 100 μL medium in 96-well microplates (Corning). Then, the cells were treated with different concentrations of compound (0, 1 μM, 3 μM, 10 μM, 100 μM, 300 μM). […] After treatment for 72 h, 10 μL of CCK-8 reagent was added to each well and then cultured for 4 h. All experiments were performed in pentaplicate. The absorbance was analyzed at 450 nm using a microplate reader (Tecan) using medium without cells as blanks. Data was processed using GraphPad Prism 9.

ALK = molecular target: T1, ALK (Homo sapiens, UniProt Q9UM73); assay: ATP hydrolysis assay (Kinase-Glo) on ALK; assay type: biochemical; settings: for LogIC50 (best-fit value): log of nM
T1 construct: The plasmid pCDNA3.1_8×His-tev-ALK (kinase domain, 1068–1410) was constructed; 8xHis (N); TEV site (N); made in house; host or cells: Expi293 cells (transient transfection)
Experimental: The ATP hydrolysis assays were based on Kinase-Glo luminescent Kit (Promega). The experiment was carried out in Corning 384-well white flat bottom microplates. The buffer in the reaction contains 25 mM Hepes pH 7.4, 140 mM NaCl, 40 mM MgCl2, 30 mM KCl, 1 mM TCEP, 0.1 mg·mL^−1 BSA, and 0.004% Tween-20. The compounds were diluted to different concentrations with a 5-fold gradient.
For ALK assays, DMSO was added into negative control wells. 100 nM ALK in 2.5 μL Hepes buffer was mixed with compounds and incubated for 10 min. Then 5 μL substrate (2 μM ATP) was added to start the reaction at 37 °C and incubated for 6 h.
When the reaction reaches the planned time, 10 μL diluted Kinase-Glo reagent (1/50 diluted with a buffer containing 50 mM Tris pH 7.5 and 5% glycerol) was added and incubated for 15 min. Luminescence was measured on the Magellan plate reader (Tecan) and nonlinear regression was performed with Prism (GraphPad).

[1] = Cytotoxicity assay (CCK-8); assay type: cell-based, human; settings: human, HepG2 cells; HepG2, 72 h
Experimental: as §1, §2

[2] = ALK, source data, read-out: IC50 (best-fit value)

T1 sequence (Q9UM73 1068-1410): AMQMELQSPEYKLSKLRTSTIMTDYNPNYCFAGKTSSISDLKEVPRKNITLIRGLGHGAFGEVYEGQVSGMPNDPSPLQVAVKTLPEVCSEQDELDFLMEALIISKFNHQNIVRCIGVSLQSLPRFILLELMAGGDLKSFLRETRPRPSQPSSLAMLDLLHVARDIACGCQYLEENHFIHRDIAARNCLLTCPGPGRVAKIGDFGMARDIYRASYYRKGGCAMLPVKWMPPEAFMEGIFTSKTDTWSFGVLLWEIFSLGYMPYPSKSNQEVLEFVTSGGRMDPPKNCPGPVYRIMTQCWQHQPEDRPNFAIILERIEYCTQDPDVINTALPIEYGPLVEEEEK

Row | HillSlope (best-fit value) (ALK; ALK) | LogIC50 (best-fit value) (ALK; ALK) | IC50 (ALK; [2]) [µM] | IC50 (ALK; read-out: IC50 against ALK) [µM] | SMILES | cytotoxicity to HepG2 (HepG2 cells) | CC50 at 72 h [1] [µM]
1 | 0.6864 | 4.281 | 19.1 | > 19.1 | COc1ccc(OC)c(Nc2ncnc(Nc3ccccc3S(=O)(=O)C(C)C)n2)c1 [Compound 36] | no significant toxicity | 
2 | 1.505 | 2.726 | 0.532 | 0.532 | COc1ccccc1Nc1ncnc(Nc2ccccc2S(=O)(=O)C(C)C)n1 [Compound 38] |  | 7.7
